The data set in a line: solubility in aqueous phase. The class given is physicochemical. The conditions noted are these: water, 25° C. An excerpt: By having an aromatic-like, heterocyclic triazine nucleus, it is believed to impart a network structure into the protein during tanning, giving better thermal stability.

Converted amounts (≈) assume the structure as drawn.

In the case of `O=c1n(CC2CO2)c(=O)n(CC2CO2)c(=O)n1CC1CO1` (stereo not shown) [TGIC, trigycidyl isocyanurate], the solubility – broadly, the dissolved amount per volume that the medium holds – worked out at 10000 µg/mL (≈ 33.6 mM).

For the origin of these results see patent US20090300848A1, “EPOXIDE-BASED TANNAGE SYSTEM” (BLC LEATHER TECHNOLOGY CENTRE LTD, priority 2006, published 2009).
